Assay results as given in patent publication US10273246B2, “Methods and compositions of substituted 5H-[1,2,5] oxadiazolo [3′,4′:5,6] pyrazino[2,3-B] indole analogs as inhibitors of β-catenin/T-cell factor protein-protein interactions” (University of Utah Research Foundation, priority 2015, dated 2019).
Read-outs that look alike come from different tables or passages of the source. Values belong to the compound of their own block, whether it stands above or below them.

Assays:
SW480 cells = assay: MTs cell viability assay, SW480; assay type: cell-based, human; conditions: for IC50: Homo sapiens, SW480, MTs cell viability, 72 h, read-out: IC50 ± SD SW480; for growth of SW480 cells: result in words, MTs
Procedure: (§1) Colorectal cancer cell lines, SW480, HT29, an HCT116, and human normal cell line HEK293 were seeded in 96-well plates at 4×10^3 cells/well, maintained overnight at 37° C., and incubated with the tested compounds at various concentrations. Cell viability was monitored after 72 h using a freshly prepared mixture of 1 part phenazine methosulfate (PMS, Sigma) solution (0.92 mg/mL) and 19 parts 3-(4,5-dimethylthiazol-2-yl)-5-(3-carboxymethoxyphenyl)-2-(4-sulfophenyl)-2H-tetrazolium (MTs, Promega) solution (2 mg/mL). Cells were incubated in 10 μL of this solution at 37° C. for 3 h, and A490 was measured. […] Experiments were performed in triplicate.

HCT116 cells = assay: MTs cell viability assay, HCT116; assay type: cell-based, human; conditions: for IC50: Homo sapiens, HCT-116, MTs cell viability, 72 h, read-out: IC50 ± SD HCT116; for growth of HCT116 cells: result in words, MTs
Procedure: as §1

HT29 cells = assay: MTs cell viability assay, HT29; assay type: cell-based; conditions: Homo sapiens, HT-29, 72 h, read-out: IC50 ± SD HT29
Procedure: as §1

β-catenin/Tcf4 = biological target: T1, β-catenin/Tcf4 (Homo sapiens, UniProt P35222); conditions: FP selectivity assay, known inhibitors, footnotes a, b; read-out: Ki ± SD β-catenin/Tcf4; cited from earlier work
T1 sequence (P35222 138-686): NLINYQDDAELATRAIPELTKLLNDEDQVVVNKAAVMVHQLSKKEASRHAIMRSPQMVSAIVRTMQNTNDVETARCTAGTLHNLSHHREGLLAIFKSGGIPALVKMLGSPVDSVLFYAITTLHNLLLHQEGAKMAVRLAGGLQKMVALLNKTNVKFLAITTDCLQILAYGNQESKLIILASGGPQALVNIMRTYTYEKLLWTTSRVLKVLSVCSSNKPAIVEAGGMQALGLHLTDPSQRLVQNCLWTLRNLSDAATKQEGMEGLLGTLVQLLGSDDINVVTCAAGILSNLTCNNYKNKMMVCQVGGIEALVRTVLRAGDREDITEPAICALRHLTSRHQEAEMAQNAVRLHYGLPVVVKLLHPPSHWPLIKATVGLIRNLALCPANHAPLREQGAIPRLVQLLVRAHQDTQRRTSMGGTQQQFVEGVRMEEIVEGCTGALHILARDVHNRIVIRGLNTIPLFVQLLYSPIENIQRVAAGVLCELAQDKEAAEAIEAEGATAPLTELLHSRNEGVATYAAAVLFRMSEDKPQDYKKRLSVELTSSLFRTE

β-catenin/APC-R3 = biological target: T2, β-catenin/APC-R3 (Homo sapiens, UniProt P35222); conditions: FP selectivity assay, known inhibitors, footnotes a, b; read-out: Ki ± SD β-catenin/APC-R3; cited from earlier work
T2 construct: Wild-type β-catenin and its mutants (residues 138-686) were cloned; 6xHis; made in house; host or cells: E. coli BL21 DE3
T2 sequence (P35222 138-686): T1 sequence (P35222 138-686)

[1] = test system: FOPFlash luciferase (reporter with eight mutant Tcf binding sites); assay type: cell-based, human
Procedure: (§2) FuGENE 6 (E2962, Promega) in a 96-well plate format was used for the transfection of HEK293 and SW480 cells according to the manufacturer's instructions. […] SW480 cells were co-transfected with 60 ng of the TOPFlash or FOPFlash reporter gene and 40 ng pCMV-RL normalization reporter. Cells were cultured in DMEM and 10% fatal bovine serum at 37° C. for 24 h, and different concentrations of inhibitors were then added. After 24 h, the luciferase reporter activity was measured using the Dual-Glo system (E2940, Promega). Normalized luciferase activity in response to the treatment with the inhibitors was compared with that obtained from the cells treated with DMSO. Experiments were performed in triplicate.

[2] = test system: canonical Wnt signaling in pcDNA3.1-β-catenin transfected HEK293 cells; assay: TOPFlash luciferase reporter assay, HEK293; assay type: cell-based, human; conditions: for TOPFlash luciferase activity / transactivation of canonical Wnt signaling: result in words, Wnt-activated HEK293
Procedure: as §2

β-catenin/Tcf4 PPI [3] = biological target: T3, β-catenin/Tcf4 PPI (Homo sapiens, UniProt P35222); conditions: for inhibitory potency for the β-catenin/Tcf PPI in the biochemical assays: result in words, FP and AlphaScreen
T3 sequence (P35222 138-686): T1 sequence (P35222 138-686)
Source text: (§3) After β-catenin and fluorescein-Tcf4 form a protein-protein complex, the fluorophore is attached to a high-molecular-weight protein complex (≥60 kDa) and has a low rotational speed when it is excited by plane-polarized light. […] When an inhibitor completely disrupts the β-catenin/fluorescein-Tcf4 PPI, the fluorophore is only attached to Tcf4 (≤6 kDa), and the emitted light after excitation will be largely depolarized due to a high rotational speed of the fluorophore. AlphaScreen is a bead-based assay. […] On laser excitation at 680 nm, the photo sensitizers inside the donor beads convert ambient oxygen to a singlet oxygen state. Only when the donor and acceptor beads are brought within 200 nm can the singlet oxygen molecules diffuse to the acceptor beads, resulting in extensive emission at 570 nm.

β-catenin/Tcf4 PPI [4] = biological target: T3, β-catenin/Tcf4 PPI
Source text: as §3

β-catenin/Tcf4 PPI [5] = biological target: T3, β-catenin/Tcf4 PPI; assay: biochemical
Source text: as §3

[6] = test system: Wnt/β-catenin target genes in SW480 cells
Procedure: Total RNAs were extracted with TRIzol (Ser. […] The threshold cycle (CT) values were normalized to that of internal reference GAPDH. The primer pairs for human GAPDH were forward: [NT] and reverse: [NT]; for human HPRT forward: [NT] and reverse: [NT]; for human AXIN2 forward: [NT] and reverse: [NT]; for human c-myc forward: [NT] and reverse: [NT]; and for human cyclin D1 forward: [NT] and reverse: [NT]. Experiments were performed in triplicate.

[7] = read-out: FP Ki ± SD, Table 6, fragments of 18
[8] = read-out: Ki ± SD FP, Table 8, resynthesized 18 and derivatives
[9] = read-out: Ki ± SD AlphaScreen, Table 8, resynthesized 18 and derivatives

Ki (β-catenin/Tcf4 PPI [3]; [7]): 310 ± 11 µM
inhibitory potency for the β-catenin/Tcf PPI in the biochemical assays (β-catenin/Tcf4 PPI [3]): some inhibitory activities
SMILES: O=C1c2ccccc2-c2nc3nonc3nc21 [Compound 19B, 9H-Indeno[1,2-B][1,2,5]Oxadiazolo[3,4-E]Pyrazin-9-One]

Ki (β-catenin/Tcf4 PPI [3]; [7]): 230 ± 6.2 µM
SMILES: N/N=C1/c2ccccc2-c2nc3nonc3nc21 [Compound 20, (Z)-9-Hydrazono-9H-Indeno[1,2-B][1,2,5]Oxadiazolo[3,4-E]Pyrazine]

Ki (β-catenin/Tcf4 PPI [3]; [7]): 240 ± 4.6 µM
inhibitory potency for the β-catenin/Tcf PPI in the biochemical assays (β-catenin/Tcf4 PPI [3]): some inhibitory activities
SMILES: NC(=S)N/N=C1/c2ccccc2-c2nc3nonc3nc21 [Compound 21]

Ki (β-catenin/Tcf4 PPI [5]): > 2 mM
SMILES: NC(=O)c1nonc1N [Compound 22]

Ki (β-catenin/Tcf4 PPI [3]; [7]): 1700 ± 28 µM
inhibitory potency for the β-catenin/Tcf PPI in the biochemical assays (β-catenin/Tcf4 PPI [3]): some inhibitory activities
SMILES: Nc1nonc1C(=O)N1CCCC1 [Compound 23]

Ki (β-catenin/Tcf4 PPI [5]): > 2 mM
SMILES: CC(C)CNC(=O)c1nonc1N [Compound 24]

Ki (β-catenin/Tcf4 PPI [3]; [7]): 1700 ± 37 µM
inhibitory potency for the β-catenin/Tcf PPI in the biochemical assays (β-catenin/Tcf4 PPI [3]): some inhibitory activities
SMILES: Nc1nonc1C(=O)NCc1ccccc1 [Compound 25]

Ki (β-catenin/Tcf4 PPI [3]; [8]): 280 ± 12 µM
inhibitory potency for the β-catenin/Tcf PPI in the biochemical assays (β-catenin/Tcf4 PPI [3]): poor inhibitory potency
Ki (β-catenin/Tcf4 PPI [4]; [9]): 120 ± 8.7 µM
SMILES: c1ccc2c(c1)[nH]c1nc3nonc3nc12 [Compound 27, 5H-[1,2,5]Oxadiazolo[3′,4′:5,6]Pyrazino[2,3-B]Indole]

The remaining lines, values behind:

SMILES: COC1=C(C[C@H](C)O)C2c3c(c(O)cc4c3-c3c(cc(O)c5c3C2C(C[C@H](C)O)=C(OC)C5=O)OCO4)C1=O (stereo partly shown) [Compound 2]
IC50 (SW480 cells): 5.5 ± 1.3 µM
IC50 (HCT116 cells): 1.2 ± 0.48 µM
IC50 (HT29 cells): 1.8 ± 0.13 µM
Ki (β-catenin/Tcf4): 150 ± 19 µM
Ki (β-catenin/APC-R3): 130 ± 0.38 µM

SMILES: CCc1ccc(-c2nc(CSCC(=O)NCCc3ccccc3)c(C)o2)cc1 [Compound 8, reference compound]
FOPFlash luciferase reporter activity ([1]; reference inhibitors): inhibited

SMILES: O=C(O)c1ccc2nc(-c3ccc(Cl)cc3)c(-c3ccc(Cl)cc3)nc2c1 [Compound 15]
IC50 (SW480 cells): 38 ± 1.1 µM
IC50 (HCT116 cells): 22 ± 5.9 µM
IC50 (HT29 cells): 41 ± 1 µM

SMILES: O=C(O)c1cc(-c2ccc(Oc3ccc(Cl)cc3)cc2)on1 [Compound 16]
IC50 (SW480 cells): > 400 µM
IC50 (HCT116 cells): > 400 µM
IC50 (HT29 cells): 430 ± 25 µM

SMILES: O=C(O)c1cc2nc(-c3ccc4c(c3)OCO4)c(-c3ccc4c(c3)OCO4)nc2cc1O [Compound 17]
IC50 ([2]; Homo sapiens, pcDNA3.1-β-catenin transfected HEK293, 24 h, read-out: TOPFlash IC50 ± SD Wnt-activated HEK293): > 100 µM
IC50 (SW480 cells): 110 ± 21 µM
IC50 (HCT116 cells): 250 ± 21 µM
IC50 (HT29 cells): 300 µM
Ki (β-catenin/Tcf4 PPI [3]; read-out: Ki + SD FP, Table 3, purchased screening hits): 8.7 ± 1 µM
Ki (β-catenin/Tcf4 PPI [4]; read-out: Ki + SD AlphaScreen, Table 3, purchased screening hits): 12 ± 0.78 µM

SMILES: Nc1nonc1NC(=O)Cn1c2ccccc2c2nc3nonc3nc21 [Compound 26, 2-(5H-[1,2,5]Oxadiazolo[3′,4′:5,6]Pyrazino[2,3-B]Indol-5-yl)-N-(4-Amino-1,2,5-Oxadiazol-3-yl)Acetamide]
TOPFlash luciferase activity / transactivation of canonical Wnt signaling [2]: did not inhibit
growth of SW480 cells (SW480 cells): did not exhibit the inhibitory activities
growth of HCT116 cells (HCT116 cells): did not exhibit the inhibitory activities

SMILES: COC(=O)CCn1c2ccccc2c2nc3nonc3nc21 [Compound 30, Methyl 3-(5H-[1,2,5]Oxadiazolo[3′,4′:5,6]Pyrazino[2,3-B]Indol-5-yl)Propanoate]
growth of SW480 cells (SW480 cells): did not exhibit the inhibitory activities
growth of HCT116 cells (HCT116 cells): did not exhibit the inhibitory activities

SMILES: CCOC(=O)CCCn1c2ccccc2c2nc3nonc3nc21 [Compound 32, Ethyl 4-(5H-[1,2,5]Oxadiazolo[3′,4′:5,6]Pyrazino[2,3-B]Indol-5-yl)Butanoate]
growth of SW480 cells (SW480 cells): did not exhibit the inhibitory activities
growth of HCT116 cells (HCT116 cells): did not exhibit the inhibitory activities

SMILES: O=C(O)CCCn1c2ccccc2c2nc3nonc3nc21 [Compound 33, 4-(5H-[1,2,5]Oxadiazolo[3′,4′:5,6]Pyrazino[2,3-B]Indol-5-yl)Butanoic Acid]
TOPFlash luciferase activity / transactivation of canonical Wnt signaling [2]: did not inhibit
growth of SW480 cells (SW480 cells): did not exhibit the inhibitory activities
growth of HCT116 cells (HCT116 cells): did not exhibit the inhibitory activities

SMILES: N#CCCCn1c2ccccc2c2nc3nonc3nc21 [Compound 36, 4-(5H-[1,2,5]Oxadiazolo[3′,4′:5,6]Pyrazino[2,3-B]Indol-5-yl)Butanenitrile]
Ki (β-catenin/Tcf4 PPI [3]; [8]): 160 ± 8.9 µM
Ki (β-catenin/Tcf4 PPI [4]; [9]): 120 ± 4.2 µM

SMILES: c1ccc2c(c1)c1nc3nonc3nc1n2CCc1nnn[nH]1 [Compound 37, 5-(2-(2H-Tetrazol-5-yl)Ethyl)-5H-[1,2,5]Oxadiazolo[3′,4′:5,6]Pyrazino[2,3-B]Indole]
TOPFlash luciferase activity / transactivation of canonical Wnt signaling [2]: suppressed the TOPFlash luciferase activity in a dose-dependent manner
FOPFlash luciferase activity ([1]; even at 200 μM, pcDNA3.1-β-catenin transfected HEK293): did not affect
IC50 (SW480 cells): 20 µM
expression of house-keeping gene HPRT ([6]; SW480): did not affect
expression of AXIN2, cyclin D1, and c-myc (mRNA) ([6]; SW480, dose-dependent): down-regulated
